Source: patent US20260055161A1, “PSCA CAR-T CELLS” (Regeneron Pharmaceuticals, Inc., priority 2018, published 2026)

Assays:
[1] = test system: serum cytokines and chemokines (IP-10, TNF-α, MCP-1, MIP-1α, MIP-1β); experiment: peripheral cytokine profiles over time; format: in vivo, human
Protocol: Cohort 3 (1.25×10^6 cells/kg) was the initial starting cohort for cell dose escalation decisions in Part 1 when PSCA CAR-T cells are administered with rimiducid. Cohorts of 3 subjects were treated with escalating doses of PSCA CAR-T cells on Day 0 with a fixed, single dose of rimiducid (0.4 mg/kg) on Day 7. The doses of PSCA CAR-T cells are detailed in FIG. 8.

cells = experiment: AP1903 amount needed in vitro for effective signaling of cells; format: cell-based
[2] = healthy volunteers; cited from earlier work
peripheral lymphocytes = settings: 1 patient with increased IL-7 and IL-15 levels after lymphodepletion
Protocol: FIG. 8 provides a table showing patient demographics and clinical characteristics. *Cytoxan 1 g/m^2 by IV infusion on Day −3; † PSCA (copies per 10^6 copies hACTB) was measured at screening.

Structure (SMILES)	serum cytokines (IP-10, TNF-α) ([1]; 8 patients that received rimiducid after CAR-T cells)	chemokine levels (MCP-1, MIP-1α, MIP-1β) ([1]; many patients, after rim infusion)	amount needed in vitro for effective signaling of cells (cells)	amount needed for effective signaling, equivalent (cells; MW: 1412 Da)	safety [2]	peripheral lymphocyte count, of the starting level (peripheral lymphocytes)
CC[C@H](C(=O)N1CCCC[C@H]1C(=O)O[C@H](CCc1ccc(OC)c(OC)c1)c1cccc(OCC(=O)NCCNC(=O)COc2cccc([C@@H](CCc3ccc(OC)c(OC)c3)OC(=O)[C@@H]3CCCCN3C(=O)[C@@H](CC)c3cc(OC)c(OC)c(OC)c3)c2)c1)c1cc(OC)c(OC)c(OC)c1 (relative stereo) [rimiducid, 2-Piperidinecarboxylic acid, 1-[(2S)-1-oxo-2-(3,4,5-trimethoxyphenyl)butyl]-, 1,2-ethanediylbis[imino(2-oxo-2,1-ethanediyl)oxy-3,1-phenylene[(1R)-3-(3,4-dimethoxyphenyl)propylidene]]ester, [2S-[1(R*),2R*[S*[S*[1(R*),2R*]]]]]-(9C1)]	all had elevated cytokines (IP-10, TNF-α) correlated with cell expansion	Increased chemokine levels	10 to 100 nM	14 to 140 µg/L	safe	
O=P1(N(CCCl)CCCl)NCCCO1 (stereo not drawn) [cyclophosphamide]						31%
